In US9682995B2, “Amino-substituted isothiazoles” (BAYER PHARMA AKTIENGESELLSCHAFT, priority 2013, dated 2017):

What was measured:
Assay in all cases: Kinase Profiling (KINOMEscan)
Assay type in all cases: binding
[1] = target: 456 kinases (of these 395 non-mutant kinases) (Homo sapiens, UniProt Q86V86); details: PIM3; 10 μM
[2] = target: 456 kinases (of these 395 non-mutant kinases) (Homo sapiens, UniProt Q15746); details: MYLK; 10 μM
[3] = target: 456 kinases (of these 395 non-mutant kinases) (Mycobacterium tuberculosis, UniProt P9WI81)
Chain of 456 kinases (of these 395 non-mutant kinases) (Mycobacterium tuberculosis, UniProt P9WI81) (P9WI81 2-626 limits assumed, change not shown): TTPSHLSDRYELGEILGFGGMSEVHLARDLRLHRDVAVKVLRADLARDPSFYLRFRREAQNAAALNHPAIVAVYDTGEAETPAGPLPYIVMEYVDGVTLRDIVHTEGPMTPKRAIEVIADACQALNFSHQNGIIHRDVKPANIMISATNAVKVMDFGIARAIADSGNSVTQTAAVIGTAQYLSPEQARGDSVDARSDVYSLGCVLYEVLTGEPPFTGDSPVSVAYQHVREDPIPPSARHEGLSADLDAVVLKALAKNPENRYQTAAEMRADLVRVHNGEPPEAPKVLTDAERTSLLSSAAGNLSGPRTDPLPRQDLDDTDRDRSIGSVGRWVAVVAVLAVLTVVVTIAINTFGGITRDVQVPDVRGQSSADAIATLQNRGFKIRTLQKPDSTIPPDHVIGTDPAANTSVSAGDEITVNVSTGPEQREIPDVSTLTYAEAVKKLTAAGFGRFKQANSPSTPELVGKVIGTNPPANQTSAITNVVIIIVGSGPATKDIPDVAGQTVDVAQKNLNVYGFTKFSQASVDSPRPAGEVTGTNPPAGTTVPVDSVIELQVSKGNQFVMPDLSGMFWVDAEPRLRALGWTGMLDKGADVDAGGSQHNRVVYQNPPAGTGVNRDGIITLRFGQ

[4] = target: 456 kinases (of these 395 non-mutant kinases) (Homo sapiens, UniProt O15146); details: MUSK; 10 μM
Chain of 456 kinases (of these 395 non-mutant kinases) (Homo sapiens, UniProt O15146) (O15146 24-869 limits assumed, change not shown): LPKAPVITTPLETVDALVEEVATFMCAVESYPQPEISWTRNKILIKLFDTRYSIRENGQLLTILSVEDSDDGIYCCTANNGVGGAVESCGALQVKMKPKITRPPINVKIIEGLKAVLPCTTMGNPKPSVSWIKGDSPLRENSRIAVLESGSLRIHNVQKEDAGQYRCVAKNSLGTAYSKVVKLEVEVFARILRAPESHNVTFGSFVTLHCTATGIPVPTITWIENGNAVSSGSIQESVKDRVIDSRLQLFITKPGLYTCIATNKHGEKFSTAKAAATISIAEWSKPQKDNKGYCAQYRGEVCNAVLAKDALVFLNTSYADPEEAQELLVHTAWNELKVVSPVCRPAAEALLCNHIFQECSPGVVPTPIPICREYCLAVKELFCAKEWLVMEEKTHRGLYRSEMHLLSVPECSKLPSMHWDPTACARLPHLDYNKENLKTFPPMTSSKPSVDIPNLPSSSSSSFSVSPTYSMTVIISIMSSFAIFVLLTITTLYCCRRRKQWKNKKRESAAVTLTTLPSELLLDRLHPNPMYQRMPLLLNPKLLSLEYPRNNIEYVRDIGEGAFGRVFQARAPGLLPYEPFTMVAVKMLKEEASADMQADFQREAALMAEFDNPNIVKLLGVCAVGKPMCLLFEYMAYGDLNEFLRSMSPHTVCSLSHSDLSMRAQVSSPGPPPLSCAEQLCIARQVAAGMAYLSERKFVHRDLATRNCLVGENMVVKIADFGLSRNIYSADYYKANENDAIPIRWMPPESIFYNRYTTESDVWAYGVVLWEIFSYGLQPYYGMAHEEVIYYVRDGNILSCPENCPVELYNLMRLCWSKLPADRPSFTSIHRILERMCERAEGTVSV

[5] = target: 456 kinases (of these 395 non-mutant kinases) (Homo sapiens, UniProt P51817); details: PRKX; 10 μM
[6] = target: 456 kinases (of these 395 non-mutant kinases) (Homo sapiens, UniProt Q9NYL2); details: ZAK; 10 μM
[7] = target: 456 kinases (of these 395 non-mutant kinases) (Homo sapiens, UniProt P06213); details: INSR; 10 μM
[8] = target: 456 kinases (of these 395 non-mutant kinases) (Homo sapiens, UniProt Q8IU85); details: CAMK1D; 10 μM
[9] = target: 456 kinases (of these 395 non-mutant kinases) (Homo sapiens, UniProt P29323); details: EPHB2; 10 μM
[10] = target: 456 kinases (of these 395 non-mutant kinases) (Homo sapiens, UniProt O15197); details: EPHB6; 10 μM
[11] = target: 456 kinases (of these 395 non-mutant kinases) (Homo sapiens, UniProt P04626); details: ERBB2; 10 μM
Chain of 456 kinases (of these 395 non-mutant kinases) (Homo sapiens, UniProt P04626) (P04626 23-1255 limits assumed, change not shown): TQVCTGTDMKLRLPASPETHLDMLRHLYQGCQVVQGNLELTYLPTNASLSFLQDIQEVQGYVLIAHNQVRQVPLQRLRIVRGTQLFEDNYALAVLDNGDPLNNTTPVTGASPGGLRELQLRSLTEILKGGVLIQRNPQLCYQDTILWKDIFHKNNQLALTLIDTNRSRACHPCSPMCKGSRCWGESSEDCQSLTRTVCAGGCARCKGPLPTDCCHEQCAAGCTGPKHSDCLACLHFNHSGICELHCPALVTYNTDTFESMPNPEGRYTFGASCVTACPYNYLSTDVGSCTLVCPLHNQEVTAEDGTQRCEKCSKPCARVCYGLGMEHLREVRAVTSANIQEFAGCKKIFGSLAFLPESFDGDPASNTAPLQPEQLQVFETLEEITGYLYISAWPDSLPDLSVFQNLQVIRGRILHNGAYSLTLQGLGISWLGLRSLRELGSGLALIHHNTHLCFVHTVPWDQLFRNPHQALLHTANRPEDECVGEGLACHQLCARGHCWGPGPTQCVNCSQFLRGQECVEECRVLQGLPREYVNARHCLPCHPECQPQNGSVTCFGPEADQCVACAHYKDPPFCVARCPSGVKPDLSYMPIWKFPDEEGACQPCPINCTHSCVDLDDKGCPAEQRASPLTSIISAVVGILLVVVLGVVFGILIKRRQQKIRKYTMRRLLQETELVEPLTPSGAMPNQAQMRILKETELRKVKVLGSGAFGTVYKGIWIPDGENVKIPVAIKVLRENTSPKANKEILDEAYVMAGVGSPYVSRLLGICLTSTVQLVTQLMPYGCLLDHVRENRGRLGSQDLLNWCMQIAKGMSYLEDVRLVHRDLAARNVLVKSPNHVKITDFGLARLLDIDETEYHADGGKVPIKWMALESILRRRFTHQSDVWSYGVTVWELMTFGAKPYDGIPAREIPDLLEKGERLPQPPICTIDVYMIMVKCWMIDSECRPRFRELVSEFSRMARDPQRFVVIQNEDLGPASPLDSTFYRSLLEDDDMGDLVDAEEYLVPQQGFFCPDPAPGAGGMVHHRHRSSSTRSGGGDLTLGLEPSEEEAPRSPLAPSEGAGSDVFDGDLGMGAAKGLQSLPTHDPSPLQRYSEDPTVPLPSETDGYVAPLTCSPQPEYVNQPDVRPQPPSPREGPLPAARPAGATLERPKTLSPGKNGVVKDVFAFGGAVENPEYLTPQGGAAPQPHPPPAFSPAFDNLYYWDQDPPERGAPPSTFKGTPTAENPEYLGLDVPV

[12] = target: 456 kinases (of these 395 non-mutant kinases) (Homo sapiens, UniProt Q8NE63); details: HIPK4; 10 μM
[13] = target: 456 kinases (of these 395 non-mutant kinases) (Homo sapiens, UniProt Q9P289); details: MST4; 10 μM
Chain of 456 kinases (of these 395 non-mutant kinases) (Homo sapiens, UniProt Q9P289) (Q9P289 2-416 limits assumed, change not shown): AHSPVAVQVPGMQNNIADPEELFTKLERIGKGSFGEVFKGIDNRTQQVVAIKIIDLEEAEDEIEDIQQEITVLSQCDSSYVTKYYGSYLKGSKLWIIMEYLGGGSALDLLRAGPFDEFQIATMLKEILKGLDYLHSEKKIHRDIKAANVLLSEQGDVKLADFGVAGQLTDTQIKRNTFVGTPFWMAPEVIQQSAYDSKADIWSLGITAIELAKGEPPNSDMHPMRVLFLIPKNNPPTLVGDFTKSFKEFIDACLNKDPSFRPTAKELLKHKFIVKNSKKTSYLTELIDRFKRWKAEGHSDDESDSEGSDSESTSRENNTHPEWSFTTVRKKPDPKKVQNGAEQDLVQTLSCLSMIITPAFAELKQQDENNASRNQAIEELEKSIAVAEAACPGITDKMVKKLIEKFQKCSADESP

[14] = target: 456 kinases (of these 395 non-mutant kinases) (Homo sapiens, UniProt Q8TD19); details: NEK9; 10 μM
[15] = target: 456 kinases (of these 395 non-mutant kinases) (Homo sapiens, UniProt P57078); details: RIPK4; 10 μM
[16] = target: 456 kinases (of these 395 non-mutant kinases) (Homo sapiens, UniProt P48730); details: CSNK1D; 10 μM
[17] = target: 456 kinases (of these 395 non-mutant kinases) (Homo sapiens, UniProt Q08881); details: ITK; 10 μM
[18] = target: 456 kinases (of these 395 non-mutant kinases) (Homo sapiens, UniProt P00519, Y253F); details: ABL1(Y253F)-phosphorylated; 10 μM
[19] = target: 456 kinases (of these 395 non-mutant kinases) (Homo sapiens, UniProt P22694); details: PKAC-beta; 10 μM
[20] = target: 456 kinases (of these 395 non-mutant kinases) (Homo sapiens, UniProt Q14289); details: PYK2; 10 μM
[21] = target: 456 kinases (of these 395 non-mutant kinases) (Homo sapiens, UniProt Q00536); details: PCTK1; 10 μM
[22] = target: 456 kinases (of these 395 non-mutant kinases) (Homo sapiens, UniProt P42681); details: TXK; 10 μM
[23] = target: 456 kinases (of these 395 non-mutant kinases) (Homo sapiens, UniProt P30530); details: AXL; 10 μM
Chain of 456 kinases (of these 395 non-mutant kinases) (Homo sapiens, UniProt P30530) (P30530 26-894 limits assumed, stated change not applied): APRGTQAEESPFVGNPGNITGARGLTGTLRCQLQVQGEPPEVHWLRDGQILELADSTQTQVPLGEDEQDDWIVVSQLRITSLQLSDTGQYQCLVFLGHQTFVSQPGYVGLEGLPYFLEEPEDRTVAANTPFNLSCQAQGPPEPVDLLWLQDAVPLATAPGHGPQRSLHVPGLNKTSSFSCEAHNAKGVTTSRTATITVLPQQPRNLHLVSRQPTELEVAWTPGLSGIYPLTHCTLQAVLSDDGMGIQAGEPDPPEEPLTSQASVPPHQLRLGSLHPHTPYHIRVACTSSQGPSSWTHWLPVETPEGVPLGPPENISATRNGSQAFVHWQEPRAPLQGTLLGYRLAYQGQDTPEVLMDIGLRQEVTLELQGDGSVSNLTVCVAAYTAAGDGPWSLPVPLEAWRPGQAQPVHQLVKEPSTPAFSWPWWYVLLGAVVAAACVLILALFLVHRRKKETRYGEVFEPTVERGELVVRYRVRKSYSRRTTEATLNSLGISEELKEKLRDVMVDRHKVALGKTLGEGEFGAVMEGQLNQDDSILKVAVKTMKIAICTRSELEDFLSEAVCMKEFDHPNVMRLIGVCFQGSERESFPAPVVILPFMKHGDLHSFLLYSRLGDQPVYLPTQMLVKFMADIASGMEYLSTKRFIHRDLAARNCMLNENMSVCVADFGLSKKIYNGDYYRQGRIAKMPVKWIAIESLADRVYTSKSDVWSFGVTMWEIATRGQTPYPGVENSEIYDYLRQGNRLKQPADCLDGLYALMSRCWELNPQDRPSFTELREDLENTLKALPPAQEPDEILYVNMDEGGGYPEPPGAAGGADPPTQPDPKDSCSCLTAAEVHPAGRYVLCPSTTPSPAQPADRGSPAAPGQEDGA

[24] = target: 456 kinases (of these 395 non-mutant kinases) (Homo sapiens, UniProt P42336, E545A); details: PIK3CA(E545A); 10 μM
[25] = target: 456 kinases (of these 395 non-mutant kinases) (Homo sapiens, UniProt P08581, M1250T); details: MET(M1250T); 10 μM
[26] = target: 456 kinases (of these 395 non-mutant kinases) (Homo sapiens, UniProt O00444); details: PLK4; 10 μM
[27] = target: 456 kinases (of these 395 non-mutant kinases) (Homo sapiens, UniProt Q9Y463); details: DYRK1B; 10 μM
[28] = target: 456 kinases (of these 395 non-mutant kinases) (Homo sapiens, UniProt P21802); details: FGFR2; 10 μM
Chain of 456 kinases (of these 395 non-mutant kinases) (Homo sapiens, UniProt P21802) (P21802 22-821 limits assumed, change not shown): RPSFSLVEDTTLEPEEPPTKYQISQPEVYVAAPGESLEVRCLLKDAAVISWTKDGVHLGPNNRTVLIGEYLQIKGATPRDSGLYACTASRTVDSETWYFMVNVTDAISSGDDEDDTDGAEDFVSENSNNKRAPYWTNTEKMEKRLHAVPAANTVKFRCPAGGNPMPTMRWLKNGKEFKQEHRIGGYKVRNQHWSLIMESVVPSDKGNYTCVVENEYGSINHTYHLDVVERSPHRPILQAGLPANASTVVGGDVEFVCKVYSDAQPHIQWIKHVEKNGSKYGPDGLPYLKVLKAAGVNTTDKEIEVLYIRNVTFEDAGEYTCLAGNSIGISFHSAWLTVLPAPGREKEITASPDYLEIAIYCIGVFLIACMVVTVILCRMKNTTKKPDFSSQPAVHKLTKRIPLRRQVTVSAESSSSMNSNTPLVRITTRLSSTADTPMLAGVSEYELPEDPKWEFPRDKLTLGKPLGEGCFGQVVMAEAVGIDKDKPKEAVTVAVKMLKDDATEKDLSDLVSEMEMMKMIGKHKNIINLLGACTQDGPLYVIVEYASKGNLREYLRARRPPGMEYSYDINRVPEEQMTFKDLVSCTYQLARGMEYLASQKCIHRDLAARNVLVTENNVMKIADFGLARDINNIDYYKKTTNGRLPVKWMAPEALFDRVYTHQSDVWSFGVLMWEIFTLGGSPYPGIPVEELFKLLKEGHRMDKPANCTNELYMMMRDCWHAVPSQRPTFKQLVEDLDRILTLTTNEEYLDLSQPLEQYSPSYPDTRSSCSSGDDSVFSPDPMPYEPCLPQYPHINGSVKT

[29] = target: 456 kinases (of these 395 non-mutant kinases) (Homo sapiens, UniProt P49759); details: CLK1; 10 μM
[30] = target: 456 kinases (of these 395 non-mutant kinases) (Homo sapiens, UniProt P00519, H396P); details: 10 μM
[31] = target: 456 kinases (of these 395 non-mutant kinases) (Homo sapiens, UniProt Q96SB4); details: SRPK1; 10 μM
[32] = target: 456 kinases (of these 395 non-mutant kinases) (Homo sapiens, UniProt P21860); details: ERBB3; 10 μM

Question: How did the “% Ctrl @ 10 μM” value [1] turn out when `CCc1ccccc1NC(=O)c1c(C)nsc1Nc1cnc2cc(F)ccc2n1` [Example 20, N-(2-Ethylphenyl)-5-[(6-fluoroquinoxalin-2-yl)amino]-3-methyl-1,2-thiazole-4-carboxamide] was run?
Answer: 100 % Ctrl

Question: What about the “% Ctrl @ 10 μM” value [2] of the same molecule?
Answer: 87 % Ctrl

Question: And the “% Ctrl @ 10 μM” value [3]?
Answer: 100 % Ctrl

Question: What about the “% Ctrl @ 10 μM” value [4] of the same molecule?
Answer: 91 % Ctrl

Question: And the “% Ctrl @ 10 μM” value [5]?
Answer: 75 % Ctrl

Question: And the “% Ctrl @ 10 μM” value [6]?
Answer: 78 % Ctrl

Question: What about the “% Ctrl @ 10 μM” value [7] of the same molecule?
Answer: 98 % Ctrl

Question: And the “% Ctrl @ 10 μM” value [8]?
Answer: 87 % Ctrl

Question: And the “% Ctrl @ 10 μM” value [9]?
Answer: 77 % Ctrl

Question: And the “% Ctrl @ 10 μM” value [10]?
Answer: 92 % Ctrl

Question: And the “% Ctrl @ 10 μM” value [11]?
Answer: 77 % Ctrl

Question: And the “% Ctrl @ 10 μM” value [12]?
Answer: 97 % Ctrl

Question: What about the “% Ctrl @ 10 μM” value [13] of the same molecule?
Answer: 100 % Ctrl

Question: And the “% Ctrl @ 10 μM” value [14]?
Answer: 78 % Ctrl

Question: And the “% Ctrl @ 10 μM” value [15]?
Answer: 100 % Ctrl

Question: And the “% Ctrl @ 10 μM” value [16]?
Answer: 86 % Ctrl

Question: And the “% Ctrl @ 10 μM” value [17]?
Answer: 100 % Ctrl

Question: What about the “% Ctrl @ 10 μM” value [18] of the same molecule?
Answer: 100 % Ctrl

Question: What about the “% Ctrl @ 10 μM” value [19] of the same molecule?
Answer: 82 % Ctrl

Question: What about the “% Ctrl @ 10 μM” value [20] of the same molecule?
Answer: 100 % Ctrl

Question: What about the “% Ctrl @ 10 μM” value [21] of the same molecule?
Answer: 100 % Ctrl

Question: And the “% Ctrl @ 10 μM” value [22]?
Answer: 71 % Ctrl

Question: And the “% Ctrl @ 10 μM” value [23]?
Answer: 90 % Ctrl

Question: And the “% Ctrl @ 10 μM” value [24]?
Answer: 95 % Ctrl

Question: And the “% Ctrl @ 10 μM” value [25]?
Answer: 100 % Ctrl

Question: And the “% Ctrl @ 10 μM” value [26]?
Answer: 100 % Ctrl

Question: What about the “% Ctrl @ 10 μM” value [27] of the same molecule?
Answer: 100 % Ctrl

Question: What about the “% Ctrl @ 10 μM” value [28] of the same molecule?
Answer: 80 % Ctrl

Question: What about the “% Ctrl @ 10 μM” value [29] of the same molecule?
Answer: 58 % Ctrl

Question: What about the “% Ctrl @ 10 μM” value ([30]; ABL1(H396P)-nonphosphorylated) of the same molecule?
Answer: 100 % Ctrl

Question: And the “% Ctrl @ 10 μM” value ([30]; ABL1(H396P)-phosphorylated)?
Answer: 92 % Ctrl

Question: What about the “% Ctrl @ 10 μM” value [31] of the same molecule?
Answer: 86 % Ctrl

Question: And the “% Ctrl @ 10 μM” value [32]?
Answer: 99 % Ctrl
